Patent US7378397B2 (The Provost, Fellows and Scholars of the College of the …, priority 2000, dated 2008)
One block for each compound: values may come before it. Where a SMILES comes first, the peptide text is derived from it. [ ]: non-standard residue; d: D form. The star is where a group is joined. pGlu = O=C1CC[C@@H](C(=O)O)N1; Pip = O=C(O)[C@@H]1CCCCN1; NHBn = c1ccc(CN*)cc1

What was measured:
[1] = target: T1, TRH-DE (Sus scrofa, UniProt A0A287AP33); experiment: HPLC assay of peptide hydrolysis by TRH-DE (Glp production); format: biochemical, porcine; conditions: for hydrolysis by TRH-DE (release of Glp): 1 mM peptide incubated with TRH-DE 18 h at 37° C., HPLC; for Rate of hydrolysis: peptide 1 mM, 37° C., Glp production by HPLC, mean±S.D.
T1 construct: The inventor purified TRH-DE from porcine brain according to purification procedures previously published by Dr. K. Bauer; from tissue; host or cells: porcine brain (TRH-DE); bovine kidney (DPP-IV, gift from Dr. C. H. Williams)
T1 sequence (A0A287AP33 1-1066): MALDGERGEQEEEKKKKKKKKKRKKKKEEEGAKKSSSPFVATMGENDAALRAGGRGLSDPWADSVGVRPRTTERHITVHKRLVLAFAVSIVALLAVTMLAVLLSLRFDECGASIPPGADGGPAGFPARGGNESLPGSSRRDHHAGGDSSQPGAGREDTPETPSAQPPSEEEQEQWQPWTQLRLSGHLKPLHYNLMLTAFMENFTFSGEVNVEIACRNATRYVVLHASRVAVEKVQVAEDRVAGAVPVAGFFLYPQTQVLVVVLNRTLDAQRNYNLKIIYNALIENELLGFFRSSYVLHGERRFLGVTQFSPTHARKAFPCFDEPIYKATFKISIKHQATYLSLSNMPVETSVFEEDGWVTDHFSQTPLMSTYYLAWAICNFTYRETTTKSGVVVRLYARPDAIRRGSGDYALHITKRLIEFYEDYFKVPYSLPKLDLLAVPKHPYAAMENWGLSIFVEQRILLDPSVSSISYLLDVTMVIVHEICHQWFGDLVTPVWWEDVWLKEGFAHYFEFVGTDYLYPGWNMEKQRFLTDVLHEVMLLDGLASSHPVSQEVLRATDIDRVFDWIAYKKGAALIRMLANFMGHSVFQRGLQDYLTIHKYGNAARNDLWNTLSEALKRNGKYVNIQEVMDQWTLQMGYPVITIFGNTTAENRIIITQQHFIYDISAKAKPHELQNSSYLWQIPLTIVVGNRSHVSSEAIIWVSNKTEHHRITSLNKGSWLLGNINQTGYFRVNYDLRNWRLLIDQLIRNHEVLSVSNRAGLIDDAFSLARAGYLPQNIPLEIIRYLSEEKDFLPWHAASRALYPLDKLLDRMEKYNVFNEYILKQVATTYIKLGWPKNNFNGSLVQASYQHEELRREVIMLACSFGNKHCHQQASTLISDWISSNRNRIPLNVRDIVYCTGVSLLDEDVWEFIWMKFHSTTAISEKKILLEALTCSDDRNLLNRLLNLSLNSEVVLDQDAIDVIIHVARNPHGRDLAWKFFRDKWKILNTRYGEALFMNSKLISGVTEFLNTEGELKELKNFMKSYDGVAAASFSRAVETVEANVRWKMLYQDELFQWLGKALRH
Protocol: (§1) The inventor purified TRH-DE from porcine brain according to purification procedures previously published by Dr. K. Bauer, (Max-Planck-Institut, Hannover, Germany) (1). TRH-DE was purified almost 20,000 fold. […] Dipeptidyl peptidase IV (DPP-IV) (EC 3.4.14.5), purified from bovine kidney (7.7 mg ml^−1, specific activity of 17.5 U mg^−1 with Gly-ProAMC as substrate), was obtained as a gilt from Dr. C. H. Williams (Queen's University Belfast, U.K). (DPP-IV was used as the coupling enzyme used in the fluorometric assays).
(§2) One unit (U) of enzyme activity was defined as that amount catalysing the formation of one μmol of product in one minute under the standard conditions employed. All incubations in the assays described below were carried out in 20 mM potassium phosphate buffer, pH 7.5, at 37° C.
Kinetic analysis of the peptide library using HPLC—The ability of each peptide in the library to act as a TRH-DE substrate was assessed using HPLC. As an initial screen, 1 mM peptide was incubated with 0.8 μg TRH-DE in a total volume of 1 ml for 18 h at 37° C. Control samples were included in which peptide (1 mM) or Glp (0.2 mM-0.8 mM) were incubated under identical conditions in the absence of TRH-DE. TRH-DE activity was terminated by the addition of TFA (0.15% v/v) and samples were then analysed using HPLC as described previously (24). Products resulting from TRH-DE hydrolysis could be separated on a C-18 reverse-phase column (Hypersil, UK) using a linear gradient of 0-70% acetonitrile in 0.08% (v/v) TFA. The concentration of Glp formed by the action of TRH-DE on the peptide library was measured by UV absorbance at 206 nm with a quantitative detection limit of 0.1 mM for a 40 μl injection volume, employing a signal to noise ratio of 10. Following the incubation of each peptide with TRH-DE, evidence of Glp in the sample was taken to indicate that the peptide was a TRH-DE substrate.
The rates of hydrolysis for each of those peptides identified as substrates were then compared by measuring Gip production using microassays with shorter incubation times. In these assays peptide (1 mM) was incubated at 37° C. in a total volume of 100 μl. 0.8-3.2 μg TRH-DE and incubations times of 5 min to 18 h were used routinely. Measurements were made in triplicate. The rate of TRH-OH hydrolysis was also measured by this method.

[2] = target: T1, TRH-DE; experiment: continuous coupled fluorometric TRH-DE assay (TRHAMC substrate, DPP-IV coupling enzyme); format: biochemical, porcine; conditions: for inhibition at 1000 µM: peptide 1 mM, 5 μM TRHAMC substrate
Protocol: as §1, §2
Kinetic analysis of peptides that are not hydrolysed by TRH-DE. A recently-developed continuous coupled fluorometric assay (23) was used to investigate the ability of those library peptides that were not hydrolysed by TRH-DE to inhibit TRHAMC degradation by TRH-DE. In this assay, TRHAMC is the substrate and dipeptidyl peptidase IV (DPP-IV) (EC 3.4.14.5) is the coupling enzyme. The reaction sequence is:
The reaction was monitored continuously by measuring the increase in AMC fluorescence. A linear progress curve with no discernible lag period was observed when the reaction was monitored over a period of 10 minutes. Nevertheless, data sampling was not commenced until 100 s from the start of the reaction to ensure measurements were taken after a steady state had been reached (see Ref. 23).
In a preliminary experiment, the peptides were screened for their ability to inhibit TRH-DE activity. The initial rate of TRHAMC hydrolysis by TRH-DE was measured by incubating 5 μM TRHAMC with 1.23 μg DPP-IV and 0.32 μg TRH-DE, both in the absence and presence of each library peptide (1 mM final concentration) under standard assay conditions (23). In each case the percentage inhibition (i%) was calculated using the equation i%=100(1-vi/vo), where vi and vo are the initial velocities in the presence and absence of peptide, respectively.
Since these peptides were poor inhibitors they were not examined further. The Ki values for the remainder of the peptides were determined by measuring their effects on TRHAMC degradation by TRH-DE using the continuous assay. Data were collected in duplicate at five different substrate concentrations and at least three different concentrations of each peptide.
Reversibility and time dependence of the inhibition produced by Glp-Gln-ProNH2, Glp-Asn-ProNH2 and Glp-Asn-ProAMC were examined by initially preincubating TRH-DE with each peptide at 37° C. for various periods up to 75 min. To investigate time dependence, the enzyme-peptide solution was subsequently added to the reaction mixture containing TRHAMC, DPP-IV, buffer and peptide, and TRH-DE activity was measured using the continuous assay. The final concentration of Glp-Gln-ProNH2, Glp-Asn-ProNH2 and Glp-Asn-ProAMC used was 400, 160 and 1 μM, respectively. […] TRH-DE activity was not affected by pre-incubation at 37° C.
Fluorescence measurements were made using a Perkin Elmer LS 50B Luminescence Spectrometer fitted with a thernostated cell holder. Wavelengths for excitation and emission were set at 370 nm and 440 nm, respectively, with slit widths of 10 nm and 5 nm, respectively.

[3] = calculated from percent inhibition measured in duplicate at 5 μM substrate
[4] = from the percent inhibition (n = 3) in the presence of 5 μM substrate
[5] = non-linear regression, five TRHAMC concentrations and at least three peptide concentrations, mean±S.D. (n=3)

hydrolysis by TRH-DE (release of Glp) [1]: no detectable cleavage
Compound: [pGlu]-Cys-Pro-NH2

Compound: NC(=O)C[C@H](NC(=O)[C@@H]1CCC(=O)N1)C(=O)N1CCC[C@H]1C(=O)Nc1ccccc1O
Ki [2, 3]: 6.62 µM

Ki [2, 4]: 8.11 µM
Compound: NC(=O)C[C@H](NC(=O)[C@@H]1CCC(=O)N1)C(=O)N1CCC[C@H]1C(=O)N[C@@H](Cc1c[nH]c2ccccc12)C(=O)N[C@@H](CO)C(=O)N[C@@H](Cc1ccc(O)cc1)C(N)=O [Glp-Asn-Pro-Trp-Ser-Tyr-NH2] ([pGlu]NPWSY-NH2)

Ki [2, 3]: 3.24 µM
Compound: COc1ccc(NC(=O)[C@@H]2CCCN2C(=O)[C@H](CC(N)=O)NC(=O)[C@@H]2CCC(=O)N2)cc1 [p-anisidide]

Rate of hydrolysis [1]: 0.06 ± 0.00 (4) U mg^−1
Compound: Glp-Ileu-ProNH2

hydrolysis by TRH-DE (release of Glp) [1]: No detectable Glp | Ki ([2]; estimated from <20% inhibition at 1 mM peptide with the competitive inhibition relationship): > 1000 µM | inhibition at 1000 µM [2]: 1%
Compound: NC(=O)[C@@H]1CCCN1C(=O)[C@H](CC(=O)O)NC(=O)[C@@H]1CCC(=O)N1 [Glp-Asp-ProNH2] ([pGlu]-Asp-Pro-NH2)

Ki [2, 4]: 5.91 µM
Compound: NC(=O)C[C@H](NC(=O)[C@@H]1CCC(=O)N1)C(=O)N1CCC[C@H]1C(=O)N[C@@H](Cc1c[nH]c2ccccc12)C(=O)N[C@@H](Cc1ccc(O)cc1)C(N)=O [Glp-Asn-Pro-Trp-Tyr-NH2] ([pGlu]NPWY-NH2)

Ki [2, 3]: 9.31 µM
Compound: NC(=O)C[C@H](NC(=O)[C@@H]1CCC(=O)N1)C(=O)N1CCC[C@H]1C(=O)Nc1cccc2c1CCCC2

Rate of hydrolysis [1]: 0.41 ± 0.02 (4) U mg^−1
Compound: [pGlu]-Arg-Pro-NH2

hydrolysis by TRH-DE (release of Glp) [1]: No detectable Glp | Ki [2, 5]: 232 ± 26 µM | inhibition at 1000 µM [2]: 71%
Compound: NC(=O)[C@@H]1CCCN1C(=O)[C@H](Cc1c[nH]c2ccccc12)NC(=O)[C@@H]1CCC(=O)N1 [Glp-Trp-ProNH2] ([pGlu]-Trp-Pro-NH2)

Ki [2, 3]: 22.4 µM
Compound: NC(=O)C[C@H](NC(=O)[C@@H]1CCC(=O)N1)C(=O)N1CCC[C@H]1C(=O)NC1CCCc2ccccc21 (single isomer, unassigned) [1,2,3,4-tetrahydro-1-naphthylamide isomer 2]

hydrolysis by TRH-DE (release of Glp) [1]: No detectable Glp | Ki [2, 5]: 500 ± 133 µM | inhibition at 1000 µM [2]: 40%
Compound: NC(=O)[C@@H]1CCCN1C(=O)[C@@H]1CCCCN1C(=O)[C@@H]1CCC(=O)N1 [Glp-homoPro-ProNH2] ([pGlu]-[Pip]-Pro-NH2)

Rate of hydrolysis [1]: 0.14 ± 0.01 (5) U mg^−1
Compound: [pGlu]-Leu-Pro-NH2

Rate of hydrolysis [1]: 0.46 ± 0.02 (3) U mg^−1
Compound: [pGlu]-Lys-Pro-NH2

Ki [2, 4]: 0.78 µM
Compound: NC(=O)C[C@H](NC(=O)[C@@H]1CCC(=O)N1)C(=O)N1CCC[C@H]1C(=O)N[C@@H](Cc1ccc(O)cc1)C(=O)N[C@@H](Cc1c[nH]c2ccccc12)C(N)=O [Glp-Asn-Pro-Tyr-Trp-NH2] ([pGlu]NPYW-NH2)

Ki [2, 3]: 11.9 µM
Compound: NC(=O)C[C@H](NC(=O)[C@@H]1CCC(=O)N1)C(=O)N1CCC[C@H]1C(=O)NCc1ccccc1 [Benzylamide] ([pGlu]-Asn-Pro-NHBn)

Ki [2, 3]: 11.6 µM
Compound: COc1ccccc1NC(=O)[C@@H]1CCCN1C(=O)[C@H](CC(N)=O)NC(=O)[C@@H]1CCC(=O)N1 [o-anisidide]

Rate of hydrolysis [1]: 0.21 ± 0.03 (4) U mg^−1
Compound: [pGlu]-Met-Pro-NH2
